Calls of active or inactive are those of the source. The calls are words filed in the database; no cut-off is given here.
Assays:
[1] = tested on: Staphylococcus aureus; assay: Synergistic antibacterial activity against methicillin-resistant Staphylococcus aureus CCARM 3089 incubated for 24 hrs in presence of Chloramphenicol by broth microdilution method; type: functional
[2] = tested on: Pseudomonas aeruginosa; assay: Synergistic antibacterial activity against multi-drug resistant Pseudomonas aeruginosa CCARM 2095 assessed as MIC of Oxacillin incubated for 24 hrs by broth microdilution method; type: functional
[3] = Hydrophobicity of compound assessed as retention time by RP-HPLC analysis; type: physicochemical
[4] = tested on: Escherichia coli; assay: Induction of cytoplasmic membrane depolarization in Escherichia coli KCTC 1682 at MIC measured for 500 secs by diSC3-5 dye based analysis relative to control; type: functional; details: time 500 sec; 0.1389 h
[5] = tested on: Pseudomonas aeruginosa; assay: Synergistic antibacterial activity against multi-drug resistant Pseudomonas aeruginosa CCARM 2095 assessed as fractional inhibitory concentration index by measuring ratio of MIC of compound in presence of Oxacillin to MIC to compound incubated for 24 hrs by broth microdilution method; type: functional
[6] = tested on: Staphylococcus aureus; assay: Synergistic antibacterial activity against methicillin-resistant Staphylococcus aureus CCARM 3089 assessed as MIC of Chloramphenicol incubated for 24 hrs by broth microdilution method; type: functional
[7] = tested on: Escherichia coli; assay: Induction of cytoplasmic membrane depolarization in Escherichia coli KCTC 1682 at 0.5 times MIC measured for 500 secs by diSC3-5 dye based analysis relative to control; type: functional; details: time 500 sec; 0.1389 h
[8] = tested on: RAW264.7; assay: Anti-inflammatory activity in mouse RAW264.7 cells assessed as inhibition of LPS-induced NO production at 5 uM pretreated for 1 hr followed by LPS treatment for 16 hrs by Griess assay relative to control; type: functional; details: time 17 hrs
[9] = tested on: Bacillus subtilis; assay: Antibacterial activity against Bacillus subtilis KCTC 3068 incubated for 24 hrs by CLSI based broth microdilution method; type: functional
[10] = tested on: Pseudomonas aeruginosa; assay: Synergistic antibacterial activity against multi-drug resistant Pseudomonas aeruginosa CCARM 2095 assessed as fractional inhibitory concentration index incubated for 24 hrs in presence of Oxacillin by broth microdilution method; type: functional
[11] = tested on: RAW264.7; assay: Anti-inflammatory activity in mouse RAW264.7 cells assessed as inhibition of LPS-induced NO production at 2.5 uM pretreated for 1 hr followed by LPS treatment for 16 hrs by Griess assay relative to control; type: functional; details: time 17 hrs
[12] = tested on: Pseudomonas aeruginosa; assay: Synergistic antibacterial activity against multi-drug resistant Pseudomonas aeruginosa CCARM 2095 assessed as MIC of Ciprofloxacin incubated for 24 hrs by broth microdilution method; type: functional
[13] = tested on: Pseudomonas aeruginosa; assay: Eradication of biofilm formation in multi-drug resistant Pseudomonas aeruginosa CCARM 2095 at 32 uM incubated for 12 hrs by CLSM analysis relative to control; type: functional
[14] = tested on: Staphylococcus aureus; assay: Synergistic antibacterial activity against methicillin-resistant Staphylococcus aureus CCARM 3089 assessed as fractional inhibitory concentration index by measuring ratio of MIC of Ciprofloxacin in presence of compound to MIC to Ciprofloxacin incubated for 24 hrs by broth microdilution method; type: functional
[15] = tested on: Staphylococcus aureus; assay: Antibacterial activity against methicillin-resistant Staphylococcus aureus CCARM 3089 incubated for 24 hrs by broth microdilution method; type: functional
[16] = tested on: Pseudomonas aeruginosa; assay: Synergistic antibacterial activity against multi-drug resistant Pseudomonas aeruginosa CCARM 2095 assessed as fractional inhibitory concentration index by measuring ratio of MIC of Ciprofloxacin in presence of compound to MIC to Ciprofloxacin incubated for 24 hrs by broth microdilution method; type: functional
[17] = tested on: Staphylococcus aureus; assay: Antibacterial activity against methicillin-resistant Staphylococcus aureus CCARM 3089 incubated for 24 hrs by CLSI based broth microdilution method; type: functional
[18] = tested on: Pseudomonas aeruginosa; assay: Synergistic antibacterial activity against multi-drug resistant Pseudomonas aeruginosa CCARM 2095 incubated for 24 hrs in presence of Ciprofloxacin by broth microdilution method; type: functional
[19] = tested on: Staphylococcus aureus; assay: Synergistic antibacterial activity against methicillin-resistant Staphylococcus aureus CCARM 3089 incubated for 24 hrs in presence of Ciprofloxacin by broth microdilution method; type: functional
[20] = tested on: Pseudomonas aeruginosa; assay: Antibacterial activity against Pseudomonas aeruginosa KCTC 1637 incubated for 24 hrs by CLSI based broth microdilution method; type: functional
[21] = tested on: Pseudomonas aeruginosa; assay: Synergistic antibacterial activity against multi-drug resistant Pseudomonas aeruginosa CCARM 2095 assessed as fractional inhibitory concentration index by measuring ratio of MIC of Oxacillin in presence of compound to MIC to Oxacillin incubated for 24 hrs by broth microdilution method; type: functional
[22] = Cytotoxicity against mouse RAW264.7 cells assessed as cell viability at 30 uM incubated for 16 hrs by WST-8 assay relative to control; type: toxicity, cell-based; details: read-out: Activity
[23] = tested on: Escherichia coli; assay: Antibacterial activity against Escherichia coli KCTC 1682 incubated for 24 hrs in presence of FeCl3 by CLSI based broth microdilution method; type: functional
[24] = tested on: Staphylococcus aureus; assay: Antibacterial activity against Staphylococcus aureus KCTC 1621 incubated for 24 hrs by CLSI based broth microdilution method; type: functional
[25] = tested on: Acinetobacter baumannii; assay: Antibacterial activity against multidrug-resistant Acinetobacter baumannii 329-53 incubated for 24 hrs by CLSI based broth microdilution method; type: functional
[26] = tested on: Escherichia coli; assay: Induction of inner membrane permeabilization in Escherichia coli KCTC 1682 at MIC by PI staining based flow cytometry (reference value: 1.51 %); type: functional
[27] = tested on: Escherichia coli; assay: Antibacterial activity against Escherichia coli KCTC 1682 incubated for 24 hrs by CLSI based broth microdilution method; type: functional
[28] = Cytotoxicity against mouse RAW264.7 cells assessed as cell survival at 10 to 20 uM incubated for 16 hrs by WST-8 assay relative to control; type: toxicity, cell-based; details: dose 10-20 µM, read-out: Survival
[29] = tested on: Staphylococcus aureus; assay: Synergistic antibacterial activity against methicillin-resistant Staphylococcus aureus CCARM 3089 assessed as fractional inhibitory concentration index by measuring ratio of MIC of compound in presence of Chloramphenicol to MIC to compound incubated for 24 hrs by broth microdilution method; type: functional
[30] = tested on: Staphylococcus aureus; assay: Synergistic antibacterial activity against methicillin-resistant Staphylococcus aureus CCARM 3089 assessed as fractional inhibitory concentration index by measuring ratio of MIC of Chloramphenicol in presence of compound to MIC to Chloramphenicol incubated for 24 hrs by broth microdilution method; type: functional
[31] = tested on: Escherichia coli; assay: Antibacterial activity against Escherichia coli KCTC 1682 incubated for 24 hrs in presence of human serum by CLSI based broth microdilution method; type: functional
[32] = tested on: Escherichia coli; assay: Antibacterial activity against Escherichia coli KCTC 1682 incubated for 24 hrs in presence of NaCl by CLSI based broth microdilution method; type: functional
[33] = tested on: Escherichia coli; assay: Induction of morphological change in Escherichia coli KCTC 1682 assessed as distorted irregular cells at MIC incubated for 4 hrs by SEM analysis; type: functional, organism-based
[34] = tested on: Pseudomonas aeruginosa; assay: Synergistic antibacterial activity against multi-drug resistant Pseudomonas aeruginosa CCARM 2095 assessed as MIC of Chloramphenicol incubated for 24 hrs by broth microdilution method; type: functional
[35] = tested on: Staphylococcus aureus; assay: Synergistic antibacterial activity against methicillin-resistant Staphylococcus aureus CCARM 3089 assessed as fractional inhibitory concentration index by measuring ratio of MIC of Oxacillin in presence of compound to MIC to Oxacillin incubated for 24 hrs by broth microdilution method; type: functional
[36] = tested on: Staphylococcus aureus; assay: Synergistic antibacterial activity against methicillin-resistant Staphylococcus aureus CCARM 3089 incubated for 24 hrs in presence of Oxacillin by broth microdilution method; type: functional

Row | Substance | MIC [1] | MIC [2] | Retention_time [3] | Activity [4] | FIC [5] | MIC [6] | Activity [7] | inhibition at 5 µM [8] | MIC [9] | fractional inhibitory concentration index (FICI) [10] | inhibition at 2.5 µM [11] | MIC [12] | Activity [13] | FIC [14] | MIC [15] | FIC [16] | MIC [17] | MIC [18] | MIC [19] | MIC [20] | further results
1 | H-GVFRLKKWLKKVKKWGK-NH2 | 0.5 µM | 128 µM | 21.66 min | ~100% | 0.25 | 512 µM | ~50% | 91.6% | 4 µM | 0.281 | 80.3% | 256 µM | >50% | 0.5 | 8 µM | 0.25 | 8 µM | 4 µM | 4 µM | 8 µM | FIC [21]: 0.031; viability at 16 h, 30 µM [22]: > 80%; MIC [23]: 32 µM; MIC [24]: 8 µM; MIC [25]: 4 µM; Activity [26]: ~100%; MIC [27]: 16 µM; viability at 16 h, up to 20 µM [28]: > 95%; FIC [29]: 0.063; FIC [30]: 0.5; MIC [31]: 32 µM; MIC [32]: 32 µM; Activity [33]: Active; MIC [34]: 512 µM; FIC [35]: 0.25; MIC [36]: 0.5 µM
2 | H-GVFRLKKWIKKVIKKWGK-NH2 | 2 µM | 128 µM | 20.06 min | ~100% | 0.25 | 256 µM | ~50% | 89% | 4 µM | 0.281 | 80.7% | 128 µM | >50% | 0.5 | 8 µM | 0.125 | 8 µM | 4 µM | 2 µM | 8 µM | FIC [21]: 0.031; viability at 16 h, 30 µM [22]: > 80%; MIC [23]: 32 µM; MIC [24]: 8 µM; MIC [25]: 4 µM; Activity [26]: ~100%; MIC [27]: 16 µM; viability at 16 h, up to 20 µM [28]: > 95%; FIC [29]: 0.25; FIC [30]: 0.25; MIC [31]: 32 µM; MIC [32]: 32 µM; Activity [33]: Active; MIC [34]: 512 µM; FIC [35]: 0.25; MIC [36]: 0.5 µM

Reference: ChEMBL document CHEMBL6074662, “Antibacterial, Antibiofilm, and Anti-inflammatory Effects of a Novel Thrombin-Derived Peptide in Sepsis Models: Insights into Underlying Mechanisms” (J Med Chem, 2024)
